Laboratory results reported in PubChem BioAssay (NCI).
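Five compound concentrations were applied to cells in 96-well plates for 48 hours; endpoints were derived by simple linear interpolation of the resulting dose-response curve. TGI: total growth inhibition.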

What was measured:
Assay in all cases: NCI anticancer screen, dose series, 48 h
PC-3 prostate = system: PC-3 prostate
T-47D breast = system: T-47D breast
SK-OV-3 ovarian = system: SK-OV-3 ovarian
HCC-2998 colon = system: HCC-2998 colon
HCT-15 colon = system: HCT-15 colon
OVCAR-5 ovarian = system: OVCAR-5 ovarian
786-0 renal = system: 786-0 renal
EKVX NSCLC = system: EKVX NSCLC
RPMI-8226 leukemia = system: RPMI-8226 leukemia
MDA-N = system: MDA-N
SF-268 CNS = system: SF-268 CNS
HT29 colon = system: HT29 colon
UACC-257 melanoma = system: UACC-257 melanoma
NCI/ADR-RES ovarian = system: NCI/ADR-RES ovarian
KM12 colon = system: KM12 colon
LOX IMVI melanoma = system: LOX IMVI melanoma
M14 melanoma = system: M14 melanoma
SK-MEL-2 melanoma = system: SK-MEL-2 melanoma
U251 CNS = system: U251 CNS
A498 renal = system: A498 renal
MCF7 breast = system: MCF7 breast
HOP-62 NSCLC = system: HOP-62 NSCLC
CCRF-CEM leukemia = system: CCRF-CEM leukemia
ACHN renal = system: ACHN renal
MOLT-4 leukemia = system: MOLT-4 leukemia
K-562 leukemia = system: K-562 leukemia
NCI-H23 lung = system: NCI-H23 lung
UO-31 renal = system: UO-31 renal
HCT-116 colon = system: HCT-116 colon
SW-620 colon = system: SW-620 colon
SK-MEL-5 melanoma = system: SK-MEL-5 melanoma
SNB-19 CNS = system: SNB-19 CNS
A549 NSCLC = system: A549 NSCLC
OVCAR-3 ovarian = system: OVCAR-3 ovarian
MALME-3M melanoma = system: MALME-3M melanoma
NCI-H460 lung = system: NCI-H460 lung
HL-60(TB) leukemia = system: HL-60(TB) leukemia
NCI-H522 lung = system: NCI-H522 lung
OVCAR-4 ovarian = system: OVCAR-4 ovarian
SN12C renal = system: SN12C renal
SF-295 CNS = system: SF-295 CNS
SNB-75 CNS = system: SNB-75 CNS
HS 578T breast = system: HS 578T breast
MDA-MB-435 = system: MDA-MB-435
CAKI-1 renal = system: CAKI-1 renal
RXF 393 renal = system: RXF 393 renal
UACC-62 melanoma = system: UACC-62 melanoma
MDA-MB-231 breast = system: MDA-MB-231 breast
SR leukemia = system: SR leukemia
SK-MEL-28 melanoma = system: SK-MEL-28 melanoma
HOP-92 NSCLC = system: HOP-92 NSCLC
DU-145 prostate = system: DU-145 prostate
BT-549 breast = system: BT-549 breast
TK-10 renal = system: TK-10 renal
OVCAR-8 ovarian = system: OVCAR-8 ovarian
COLO 205 colon = system: COLO 205 colon
SF-539 CNS = system: SF-539 CNS
NCI-H226 lung = system: NCI-H226 lung
IGROV1 ovarian = system: IGROV1 ovarian

Measured: TGI

S=C(NCCc1ccccn1)N/N=C(\c1ccccc1)c1ccccn1
> 70.5 µM: UACC-257 melanoma
> 75.7 µM: T-47D breast
> 86.5 µM: HCT-15 colon
> 56.8 µM: 786-0 renal
40.2 µM: SK-MEL-5 melanoma
> 71.6 µM: EKVX NSCLC
0.951 µM: A498 renal
> 78.6 µM: MOLT-4 leukemia
> 67.3 µM: SN12C renal
> 63 µM: HCC-2998 colon
> 48.6 µM: DU-145 prostate
36.1 µM: LOX IMVI melanoma
54.7 µM: OVCAR-4 ovarian
1.44 µM: NCI/ADR-RES ovarian
17.9 µM: ACHN renal
> 58.8 µM: CAKI-1 renal
> 50.1 µM: HOP-62 NSCLC
> 27.3 µM: NCI-H23 lung
39.3 µM: BT-549 breast
> 55.7 µM: SF-295 CNS | HOP-92 NSCLC
52.8 µM: RXF 393 renal
14.1 µM: UO-31 renal
> 78 µM: SNB-75 CNS
27.1 µM: SF-539 CNS
> 91.5 µM: KM12 colon
17.4 µM: OVCAR-8 ovarian
> 66.2 µM: SK-OV-3 ovarian
> 57.7 µM: SR leukemia
21.7 µM: HT29 colon
> 24.4 µM: UACC-62 melanoma
> 76.1 µM: SF-268 CNS
> 58 µM: RPMI-8226 leukemia
not listed: NCI-H226 lung | IGROV1 ovarian
> 100 µM: all other assays above

Cn1c(-c2ccccc2)cc(-c2ccc3c(c2)OCO3)c1-c1ccsc1
not listed: MALME-3M melanoma | NCI-H522 lung | IGROV1 ovarian
> 100 µM: all other assays above

Cc1cc(C)n(-c2nc(-n3nc(C)cc3C)nc(-n3nc(C)cc3C)n2)n1
86.5 µM: TK-10 renal
not listed: U251 CNS | SNB-75 CNS
> 100 µM: all other assays above
